Earlier results as cited in patent publication US9597342B2 (UWM Research Foundation, Inc., priority 2011, dated 2017).
pKi: −log10 of the molar value.

Tests used:
[1] = target: T1, GABAA/α5 receptors (Homo sapiens, UniProt P18507+P31644); settings: high affinity; Huang et al., J. Med. Chem. 2000; cited from earlier work
T1 sequence (P31644 32-462): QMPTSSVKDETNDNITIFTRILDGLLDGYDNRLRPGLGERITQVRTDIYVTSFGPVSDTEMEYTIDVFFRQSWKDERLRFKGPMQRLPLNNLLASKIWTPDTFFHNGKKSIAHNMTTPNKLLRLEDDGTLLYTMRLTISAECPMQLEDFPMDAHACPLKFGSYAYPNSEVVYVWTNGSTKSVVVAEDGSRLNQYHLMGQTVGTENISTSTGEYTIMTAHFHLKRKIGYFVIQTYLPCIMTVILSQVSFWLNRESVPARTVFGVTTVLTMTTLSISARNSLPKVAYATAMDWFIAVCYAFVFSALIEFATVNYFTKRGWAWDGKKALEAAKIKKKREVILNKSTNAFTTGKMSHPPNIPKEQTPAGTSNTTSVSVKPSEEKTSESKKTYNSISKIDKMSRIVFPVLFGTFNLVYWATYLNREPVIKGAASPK
T1 sequence (P18507 40-467 limits assumed): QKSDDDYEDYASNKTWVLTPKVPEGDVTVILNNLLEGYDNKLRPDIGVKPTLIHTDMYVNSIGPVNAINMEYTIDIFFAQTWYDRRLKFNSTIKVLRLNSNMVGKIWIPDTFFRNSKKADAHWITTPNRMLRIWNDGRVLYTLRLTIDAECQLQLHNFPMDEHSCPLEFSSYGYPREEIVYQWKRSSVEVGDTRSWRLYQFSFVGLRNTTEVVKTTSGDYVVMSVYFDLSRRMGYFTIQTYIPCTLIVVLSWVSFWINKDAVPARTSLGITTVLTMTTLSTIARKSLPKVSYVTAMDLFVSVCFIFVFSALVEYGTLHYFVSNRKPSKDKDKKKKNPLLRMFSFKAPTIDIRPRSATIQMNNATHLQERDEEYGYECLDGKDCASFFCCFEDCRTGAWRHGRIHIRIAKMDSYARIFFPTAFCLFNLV
T1 sequence (P28472 26-473 partner): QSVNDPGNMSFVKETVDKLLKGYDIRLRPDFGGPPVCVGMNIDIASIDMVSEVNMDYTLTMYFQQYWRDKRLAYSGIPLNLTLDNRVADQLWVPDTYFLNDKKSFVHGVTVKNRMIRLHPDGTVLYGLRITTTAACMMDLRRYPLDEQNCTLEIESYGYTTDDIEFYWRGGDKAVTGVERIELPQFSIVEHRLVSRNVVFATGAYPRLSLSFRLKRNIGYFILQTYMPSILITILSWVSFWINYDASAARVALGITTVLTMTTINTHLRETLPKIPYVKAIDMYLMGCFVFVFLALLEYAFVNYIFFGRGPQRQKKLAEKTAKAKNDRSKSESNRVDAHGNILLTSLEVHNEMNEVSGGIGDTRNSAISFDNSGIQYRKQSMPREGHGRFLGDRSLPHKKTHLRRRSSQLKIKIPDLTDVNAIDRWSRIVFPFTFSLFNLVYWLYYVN

[2] = target: T2, GABAA/α2 (Homo sapiens, UniProt P18507+P47869); settings: intermediate affinity; Huang et al., J. Med. Chem. 2000; cited from earlier work
T2 sequence (P47869 29-451): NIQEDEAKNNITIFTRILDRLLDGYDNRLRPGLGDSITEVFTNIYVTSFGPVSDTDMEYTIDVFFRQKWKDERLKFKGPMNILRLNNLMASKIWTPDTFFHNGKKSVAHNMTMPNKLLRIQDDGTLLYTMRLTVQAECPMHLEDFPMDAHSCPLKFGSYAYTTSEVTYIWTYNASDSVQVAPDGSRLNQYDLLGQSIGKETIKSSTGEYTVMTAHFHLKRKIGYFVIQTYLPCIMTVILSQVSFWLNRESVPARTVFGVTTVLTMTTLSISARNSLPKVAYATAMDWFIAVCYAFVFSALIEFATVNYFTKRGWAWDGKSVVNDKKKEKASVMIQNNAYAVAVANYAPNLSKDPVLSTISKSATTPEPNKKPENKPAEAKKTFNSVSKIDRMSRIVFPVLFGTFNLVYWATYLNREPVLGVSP
T2 sequence (P18507 40-467 limits assumed): T1 sequence (P18507 40-467 limits assumed)
T2 sequence (P28472 26-473 partner): T1 sequence (P28472 26-473 partner)

[3] = target: T3, GABAA/α3 (Homo sapiens, UniProt P18507+P34903); settings: intermediate affinity; Huang et al., J. Med. Chem. 2000; cited from earlier work
T3 sequence (P34903 29-492): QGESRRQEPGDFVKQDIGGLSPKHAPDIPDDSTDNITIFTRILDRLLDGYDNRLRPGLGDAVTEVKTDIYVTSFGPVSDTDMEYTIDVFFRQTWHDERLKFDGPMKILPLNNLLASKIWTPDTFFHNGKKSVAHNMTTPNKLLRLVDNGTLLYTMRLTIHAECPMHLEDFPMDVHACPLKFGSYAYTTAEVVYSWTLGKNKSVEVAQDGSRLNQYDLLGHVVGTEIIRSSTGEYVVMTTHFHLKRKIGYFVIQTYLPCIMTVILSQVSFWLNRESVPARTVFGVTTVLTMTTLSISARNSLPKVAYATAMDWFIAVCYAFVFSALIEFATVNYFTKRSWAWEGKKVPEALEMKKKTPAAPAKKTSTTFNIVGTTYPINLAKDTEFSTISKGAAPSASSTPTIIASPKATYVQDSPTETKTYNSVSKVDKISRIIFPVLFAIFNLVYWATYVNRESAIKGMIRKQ
T3 sequence (P18507 40-467 limits assumed): T1 sequence (P18507 40-467 limits assumed)
T3 sequence (P28472 26-473 partner): T1 sequence (P28472 26-473 partner)

[4] = target: T4, GABAA/α1 receptors (Homo sapiens, UniProt P14867+P18507); settings: poorer affinity; Huang et al., J. Med. Chem. 2000; cited from earlier work
T4 sequence (P14867 28-456): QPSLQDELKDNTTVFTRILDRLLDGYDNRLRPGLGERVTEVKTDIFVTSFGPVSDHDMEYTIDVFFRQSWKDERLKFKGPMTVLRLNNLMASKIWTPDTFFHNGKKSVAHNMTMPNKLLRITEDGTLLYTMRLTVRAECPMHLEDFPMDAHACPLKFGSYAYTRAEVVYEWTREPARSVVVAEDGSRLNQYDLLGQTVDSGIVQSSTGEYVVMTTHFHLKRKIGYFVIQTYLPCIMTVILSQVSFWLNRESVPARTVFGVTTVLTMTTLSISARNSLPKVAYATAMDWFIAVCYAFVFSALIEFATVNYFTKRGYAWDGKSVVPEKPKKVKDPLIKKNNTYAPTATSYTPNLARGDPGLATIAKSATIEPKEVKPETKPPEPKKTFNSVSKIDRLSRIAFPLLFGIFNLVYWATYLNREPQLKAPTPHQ
T4 sequence (P18507 40-467 limits assumed): T1 sequence (P18507 40-467 limits assumed)
T4 sequence (P28472 26-473 partner): T1 sequence (P28472 26-473 partner)

[5] = target: all four diazepam-sensitive GABAA receptors; settings: Huang et al., J. Med. Chem. 2000; cited from earlier work

C#Cc1ccc2c(c1)C(c1ccccc1)=NCC(=O)N2C [QH-ii-066]
pKi [1]: > 8.00 | pKi [2]: > 7.30 | pKi [3]: > 7.30 | pKi [4]: < 7.15

CN1C(=O)CN=C(c2ccccc2)c2cc(Cl)ccc21 [diazepam]
pKi [5]: > 7.60
